Source: ChEMBL document CHEMBL1122832, “4-substituted 5-[m-(trifluoromethyl)phenoxy]primaquine analogues as potential antimalarial agents” (1985)
Values joined by “and” are separate entries in the source; they are usually repeats but may differ in a detail not shown here. Identical values can stand only once.

Tests used:
Type in all cases: functional
Mus musculus [1] = experiment: Antimalarial activity against Plasmodium berghei in mice (Mus musculus) at a dose of 160 mg/kg and activity expressed as number cures surviving 60 days
Mus musculus [2] = experiment: Antimalarial activity against Plasmodium berghei in mice (Mus musculus) at a dose of 20 mg/kg and activity expressed as number cures surviving 60 days
Mus musculus [3] = experiment: Antimalarial activity against Plasmodium berghei in mice (Mus musculus) at a dose of 40 mg/kg and activity expressed as number cures surviving 60 days
Mus musculus [4] = experiment: Antimalarial activity against Plasmodium berghei in mice (Mus musculus) at a dose of 640 mg/kg and activity expressed as number cures surviving 60 days
Mus musculus [5] = experiment: Antimalarial activity against Plasmodium berghei in mice (Mus musculus) at a dose of 640 mg/kg and activity expressed as toxic deaths on days 2-5
Plasmodium cynomolgi [6] = experiment: Antimalarial activity against Plasmodium cynomolgi infected Rhesus monkeys (Macaca mulatta) at 0.316 mg/kg dose; Cured 2 of 2
Plasmodium cynomolgi [7] = experiment: Antimalarial activity against Plasmodium cynomolgi infected Rhesus monkeys (Macaca mulatta) at 1.0 mg/kg; cured 2 of 2
Plasmodium cynomolgi [8] = experiment: Antimalarial activity against Plasmodium cynomolgi infected Rhesus monkeys (Macaca mulatta) at 0.1 mg/kg; cured 0 of 1
Mus musculus [9] = experiment: Mean survival time of mice(Plasmodium berghei) at a dose of 160 mg/kg, total no. of mice = 5
Mus musculus [10] = experiment: Mean survival time of mice(Plasmodium berghei) at a dose of 40 mg/kg, total no. of mice = 5
Mus musculus [11] = experiment: Mean survival time of mice(Plasmodium berghei) at a dose of 640 mg/kg, total no. of mice = 5
Plasmodium cynomolgi [12] = experiment: Antimalarial activity against Plasmodium cynomolgi infected Rhesus monkeys (Macaca mulatta) at 1.0 mg/kg;cured 0 of 2
Plasmodium cynomolgi [13] = experiment: Antimalarial activity against Plasmodium cynomolgi infected Rhesus monkeys (Macaca mulatta) at 1.0 mg/kg; relapses
Mus musculus [14] = experiment: Antimalarial activity against Plasmodium berghei in mice (Mus musculus) at a dose of 320 mg/kg and activity expressed as number cures surviving 60 days
Mus musculus [15] = experiment: Antimalarial activity against Plasmodium berghei in mice (Mus musculus) at a dose of 80 mg/kg and activity expressed as number cures surviving 60 days
Mus musculus [16] = experiment: Antimalarial activity against Plasmodium berghei yoelii in mice (Mus musculus) at a dose of 10 mg/kg administered subcutaneously and activity expressed as cures; 6/25; conditions: route subcutaneous
Mus musculus [17] = experiment: Antimalarial activity against Plasmodium berghei yoelii in mice (Mus musculus) at a dose of 160 mg/kg administered by subcutaneous and activity expressed as cures; 2/25
Mus musculus [18] = experiment: Antimalarial activity against Plasmodium berghei yoelii in mice (Mus musculus) at a dose of 40 mg/kg administered subcutaneously and activity expressed as cures; 5/25; conditions: route subcutaneous
Mus musculus [19] = experiment: Mean survival time of mice(Plasmodium berghei) at a dose of 10 mg/kg, total no. of mice = 5
Mus musculus [20] = experiment: Mean survival time of mice(Plasmodium berghei) at a dose of 5 mg/kg, total no. of mice = 5
Plasmodium cynomolgi [21] = experiment: Antimalarial activity against Plasmodium cynomolgi infected Rhesus monkeys (Macaca mulatta) at 0.1 mg/kg; relapses in 2 of 2
Plasmodium cynomolgi [22] = experiment: Antimalarial activity against Plasmodium cynomolgi infected Rhesus monkeys (Macaca mulatta) at 0.1 mg/kg; cured 0 of 2
Mus musculus [23] = experiment: Antimalarial activity against Plasmodium berghei in mice (Mus musculus) at a dose of 160 mg/kg and activity expressed as toxic deaths on days 2-5
Mus musculus [24] = experiment: Antimalarial activity against Plasmodium berghei yoelii in mice (Mus musculus) at a dose of 10 mg/kg administered by peroral and activity expressed as cures; 5/5; conditions: route oral
Mus musculus [25] = experiment: Antimalarial activity against Plasmodium berghei yoelii in mice (Mus musculus) at a dose of 10 mg/kg administered by subcutaneous and activity expressed as cures; 8/10
Mus musculus [26] = experiment: Antimalarial activity against Plasmodium berghei yoelii in mice (Mus musculus) at a dose of 160 mg/kg administered subcutaneously and activity expressed as cures; […]; conditions: route subcutaneous
Mus musculus [27] = experiment: Antimalarial activity against Plasmodium berghei yoelii in mice (Mus musculus) at a dose of 2.5 mg/kg administered by peroral and activity expressed as cures; 0/5; conditions: route oral
Mus musculus [28] = experiment: Antimalarial activity against Plasmodium berghei yoelii in mice (Mus musculus) at a dose of 2.5 mg/kg administered by subcutaneous and activity expressed as cures; 1/5
Mus musculus [29] = experiment: Antimalarial activity against Plasmodium berghei yoelii in mice (Mus musculus) at a dose of 40 mg/kg administered by peroral and activity expressed as cures; 4/5; conditions: route oral
Plasmodium cynomolgi [30] = experiment: Antimalarial activity against Plasmodium cynomolgi infected Rhesus monkeys (Macaca mulatta) at 0.316 mg/kg; cured 1 of 2
Plasmodium cynomolgi [31] = experiment: Antimalarial activity as relapses in Plasmodium cynomolgi infected Rhesus monkeys (Macaca mulatta) at 0.1 mg/kg
Plasmodium cynomolgi [32] = experiment: Antimalarial activity against Plasmodium cynomolgi infected Rhesus monkeys (Macaca mulatta) at 0.316 mg/kg; relapses
Mus musculus [33] = experiment: Antimalarial activity against Plasmodium berghei yoelii in mice (Mus musculus) at a dose of 40 mg/kg administered subcutaneously and activity expressed as cures; 9/10; conditions: route subcutaneous

COc1cc(NC(C)CCCN)c2nccc(C)c2c1Oc1cccc(C(F)(F)F)c1 (centres undefined)
Cures (Mus musculus [1]): 5
Cures (Mus musculus [2]): 5
Cures (Mus musculus [3]): 5
Cures (Mus musculus [4]): 1
Toxic (Mus musculus [5]): 4
Cures (Plasmodium cynomolgi [6]): 2
Cures (Plasmodium cynomolgi [7]): 2
Cures (Plasmodium cynomolgi [8]): 0

C=Cc1ccnc2c(NC(C)CCCN)cc(OC)c(Oc3cccc(C(F)(F)F)c3)c12 (centres undefined)
Delta MST (Mus musculus [9]): 3.7
Delta MST (Mus musculus [10]): -0.1
Delta MST (Mus musculus [11]): 8.1
Cures (Plasmodium cynomolgi [12]): 0
Relapses (Plasmodium cynomolgi [13]): 12 and 19

CCc1ccnc2c(NC(C)CCCN)cc(OC)c(Oc3cccc(C(F)(F)F)c3)c12 (centres undefined)
Cures (Mus musculus [1]): 5
Cures (Mus musculus [2]): 3
Cures (Mus musculus [14]): 5
Cures (Mus musculus [3]): 4
Cures (Mus musculus [4]): 1
Cures (Mus musculus [15]): 4
Cures (Mus musculus [16]): 6
Cures (Mus musculus [17]): 2
Cures (Mus musculus [18]): 5
Delta MST (Mus musculus [19]): 5.3
Delta MST (Mus musculus [20]): 1.7
Cures (Plasmodium cynomolgi [6]): 2
Cures (Plasmodium cynomolgi [7]): 2
Relapses (Plasmodium cynomolgi [21]): 20
Cures (Plasmodium cynomolgi [22]): 0
Toxic (Mus musculus [23]): 3

COCc1ccnc2c(NC(C)CCCN)cc(OC)c(Oc3cccc(C(F)(F)F)c3)c12 (centres undefined)
Cures (Mus musculus [1]): 4
Cures (Mus musculus [2]): 1
Cures (Mus musculus [14]): 4
Cures (Mus musculus [3]): 5
Cures (Mus musculus [4]): 2
Cures (Mus musculus [15]): 5
Cures (Mus musculus [24]): 5
Cures (Mus musculus [25]): 8
Cures (Mus musculus [26]): 5
Cures (Mus musculus [27]): 0
Cures (Mus musculus [28]): 1
Cures (Mus musculus [29]): 4
Delta MST (Mus musculus [19]): 6.6
Delta MST (Mus musculus [20]): 2.8
Cures (Plasmodium cynomolgi [30]): 1
Cures (Plasmodium cynomolgi [7]): 2
Relapses (Plasmodium cynomolgi [31]): 8
Relapses (Plasmodium cynomolgi [32]): 28
Cures (Plasmodium cynomolgi [22]): 0
Cures (Mus musculus [33]): 9
